Laboratory results reported in US20140329863A1 (priority 2011, published 2014).
Values after ≈ are worked out from the molar mass of the structure shown. Like-named read-outs stand apart in the source and are kept apart here.

Experiments:
[1] = Single-dose pharmacokinetics in FVB mice (oral gavage, IV); details: single oral dose, FVB mice, brain
[2] = Single-dose pharmacokinetic studies in female FVB mice (PO, IV, IP); type: in vivo, mouse; details: single 40 mg/kg oral dose
Protocol: For in-vivo pharmacokinetic studies, compounds were dissolved in a formulation containing 20% propylene glycol, 5% ethanol, 5% labrosol, and 70% polyethylene glycol 400 (PEG400) and administered by oral gavage to female FVB mice weighing ˜25 g. At specified time points after dosing (0.25, 0.5, 1, 2, 4, 6, and 24 h), 2 animals were euthanized by CO2, and ˜1 mL blood (by cardiac puncture) and brain samples were collected. The heparinized blood samples were centrifuged to obtain plasma, which was stored at −80° C. until analysis. Brain samples were weighed, diluted […] with water, and then homogenized using a Precellys 24 tissue homogenizer. Brain homogenates (20% wt/vol) were stored at −80° C. until analysis. Pharmacokinetic protocols involving animals were all reviewed and approved by the UCSF institutional animal care and use committee (IACUC).
(§1) Plasma and brain homogenate samples were extracted using a protein-precipitation method and analyzed by specific LC/MS/MS methods developed for each compound dosed in vivo. The analytical method accuracy and precision were monitored by analyzing quality control (QC) samples that were prepared and treated using the same methods as calibration standards for the plasma or brain homogenate samples.
The data were used to calculate the area under the concentration-time curve (AUClast) by noncompartmental analysis with sparse sampling performed using Phoenix WinNonlin 6.1 software (Pharsight, Mountain View, Calif.).
Pharmacokinetic protocols employing mice were reviewed and approved by the UCSF Institutional Animal Care and Use Committee (IACUC). Female FVB mice, weighing approximately 25 g, were used for all in vivo pharmacokinetic studies. Mice were housed with free access to food and water, and were maintained on 12-h light/dark cycles for 1 week before dosing studies were initiated.
For the single-dose of 40 mg/kg, compounds were dissolved in a formulation containing 5% propylene glycol, […] α-tocopheryl polyethylene glycol 1000 succinate (TPGS) and 70% polyethylene glycol 400 (PEG400), and administered by oral gavage. Two animals per time point were used. At specified time points after dosing (0.5, 1, 2, 4, 6, and 24 h), animals were euthanized by CO2, and blood for plasma (by cardiac puncture) and brain samples were collected. The heparinized blood samples were centrifuged to obtain plasma. Brain samples were weighed, diluted 10-fold with water, and then homogenized using a Precellys 24 tissue homogenizer. The brain and plasma samples were flash-frozen on dry ice and then stored at −80° C. until analysis. For the single-dose administration at 10 mg/kg, compounds were dissolved in a formulation containing 20% propylene glycol, 5% ethanol, 5% labrosol, and 70% PEG400, and administered by oral gavage. Two animals per time point were used. At specified time points after dosing (0.25, 0.5, 1, 2, 4, 6, and 24 h), animals were euthanized by CO2, and blood for plasma (by cardiac puncture) and brain samples were collected. The heparinized blood samples were centrifuged to obtain plasma. Brain samples were weighed, diluted five-fold with water, and then homogenized using a Precellys 24 tissue homogenizer. The brain and plasma samples were flash-frozen on dry ice and then stored at −80° C. until analysis.
Compounds were administered through tail vein injection. Two animals per time point were used. At specified time points after dosing (5 min, 0.25, 0.5, 1, 2, 4, and 6 h), animals were euthanized by CO2. Blood and brain samples were obtained and processed as described above for the oral dosing at 40 mg/kg.
as §1, with “by” for “and treated using”, “as” for “as calibration standards for”, “samples. […]” for “samples.”

[3] = system: PrP^Sc in dividing ScN2a-cl3 cells; type: cell-based, mouse; set-up: Dividing ELISA pEC50 (μM) 1st Expt. / Dividing ELISA pEC50 (μM) 2nd Expt. / Dividing ELISA pEC50 (μM) 3rd Expt. / Dividing ELISA pEC50 (μM) Mean: unit not given here
[4] = not given; remark: listed apart in the source
Binding in human plasma = details: 1 μM; mean ± SD, n = 3 (warfarin n = 2)
N2a-cl3 cells [5] = details: read-out: Dividing Calcein EC50 (μM) Mean (n = 3)
MDCK-MDR1 cells = experiment: Permeability in MDCK-MDR1 cells; details: MDR1-MDCK cell monolayers; for Permeability PA→B: apical to basal; for Permeability PB→A: basal to apical
[6] = Hepatic microsomal stability, rat; details: […]
[7] = system: PrP^Sc in nondividing ScN2a-cl3 cells; type: cell-based, mouse; details: read-out: Non-Dividing ELISA EC50 (μM) Mean (n = 3); ScN2a-c13 non-dividing cells; mean n = 3
[8] = […]
[9] = Multiple-dose (three-day) pharmacokinetic studies in FVB mice, drug in liquid diet; type: in vivo, mouse; details: three days in liquid diet, higher doses (up to 210 mg/kg/day)
Protocol: Aminothiazole analog (e.g., 4.5 g of 27) was added to 15 mL of pure PEG400, vortexed and sonicated to ensure dissolution, then stored at −4° C. until needed. This highly concentrated PEG400 solution was subsequently diluted to final dosing concentrations, where the volume added was composed of homogenized solid rodent feed, cocoa (taste masking agent), and water. Wild-type FVB mice weigh ˜25 gm and typically drink 20 mL of liquid diet per day, allowing an estimate of daily drug consumption. A single dosing cohort consisted of three mice in a shared cage and liquid diet was provided at the start of the study in sufficient volume to last for the entire three-day trial (˜200 mL). At the end of the three-day dosing period, animals were euthanized by CO2, followed by collection of plasma (cardiac puncture) and removal of whole brain. Heparinized blood was centrifuged to separate plasma and both plasma and brain samples were stored at −80° C. prior to analysis. Plasma samples were prepared for analysis by precipitating proteins and reconstituting the remaining fraction with HPLC mobile phase. Brain samples were typically prepared by four-fold dilution with water after weighing, then homogenized using bead-beater or Polytron™ resulting in a highly concentrated solution that was further diluted with mobile phase as appropriate in preparation for bioanalytical analysis using LC-MS. Analysis was by LC-MS (Shimadzu dual-HPLC pumps, C18 analytical column, with detection using an Applied Biosystems API-4000 triple quadrupole mass spectrometer).
Ten compounds were selected from among the 34 2-AMTs for three-day multiple-dose PK studies at PO doses ranging from 40-210 mg/kg. Selection was based on diversity in potency, chemical structure, and a range of physicochemical properties. We used a liquid diet to facilitate easy drug administration, as well as serve as the daily source of all water and food. This approach was chosen because the mouse bioassay studies that would be used to assess drug effects on survival would be expected to run for 110 to 400 days, or more; gavage dosing for such a long period is not feasible and more stressful to mice. For the multiple-dose PK studies, 4.5 g of the 2-AMT analogs was added to 15 mL of pure PEG400, vortexed and sonicated to ensure dissolution, then stored at −4° C. until needed. This highly concentrated PEG400 solution was subsequently diluted to final dosing concentrations and added to the rodent liquid diet, cocoa (taste-masking agent), and water.
Wild-type FVB mice weigh ˜25 g and typically drink 20 mL of liquid diet per day, allowing an estimate of daily drug consumption. A single dosing cohort consisted of three mice in a shared cage and liquid diet was provided at the start of the study in sufficient volume (˜200 mL) to last for the entire three-day period. At the end of the dosing period, animals were euthanized by CO2, followed by collection of plasma (cardiac puncture) and removal of whole brain. Samples were processed and stored as described above for the 10 mg/kg single-dose studies.
Plasma and brain homogenate samples were extracted using a protein-precipitation method and analyzed by specific LC/MS/MS methods developed for each compound dosed in vivo. The analytical method accuracy and precision were monitored by analyzing quality control (QC) samples that were prepared by the same methods as the plasma or brain homogenate samples. The brain and plasma concentration data were used to calculate the maximal concentration (Cmax), area under the concentration-time curve (AUClast), and absolute bioavailability (% F) by noncompartmental analysis with sparse sampling performed using Phoenix WinNonlin 6.1 software (Pharsight, Mountain View, Calif.).

[10] = system: PrP^Sc in dividing ScN2a-c13 cells; details: read-out: EC50 (ELISA), reduction of PrP^Sc load; dividing ScN2a-c13 cells
N2a-cl3 cells [11] = experiment: cells; details: Mus musculus, N2a-cl3, read-out: Dividing Calcein EC50 (μM) Mean (n = 3)
[12] = Table 29, 2-AMT analogs tested for potency, usually n = 3 or more
[13] = pH 1.2, simulated gastric fluid
[14] = ScN2a-cl3 dividing cells, 1st determination
[15] = ScN2a-cl3 dividing cells, 2nd determination
[16] = ScN2a-cl3 dividing cells, 3rd determination
[17] = ScN2a-cl3 dividing cells, mean of three determinations

In the case of Cc1ccnc(Nc2nc(-c3ccccc3O)cs2)c1 [IND48, 2-[2-(4-Methyl-pyridin-2-ylamino)-thiazol-4-yl]-phenol], the melting point is reported as 249 to 250 °C, the “Brain exposure (AUClast) ranking” value [1] is reported as “lowest AUClast values” and the “AUC0->last, brain exposure” value [2] is reported as “lowest AUClast values”. The EC50 ([3]; AMT analogs tested for potency) was > 10 µM and the EC50 [3, 12] was > 10 µM.
For Cc1ccnc(Nc2nc(-c3ccc(O)cc3)cs2)c1 [IND49, 4-[2-(4-Methyl-pyridin-2-ylamino)-thiazol-4-yl]-phenol], the “Brain exposure (AUClast) ranking” value [1] was “lowest AUClast values”, the “AUC0->last, brain exposure” value [2] was “lowest AUClast values” and the EC50 ([3]; AMT analogs tested for potency) was > 10 µM. The EC50 [3, 12] was > 10 µM.
With Cc1cccc(Nc2nc(-c3ccc(-c4ccnc(N(C)C)c4)cc3)cs2)n1 [IND-0116095] the solubility (physchem; [13]) was > 150 µM, the solubility (physchem; pH 7.4, aqueous buffer) was 1.6 µM (≈ 0.62 µg/mL) and the “Analiza solubility (μM) pH 1.2” value [4] was >150 μM.
With Cc1cccc(Nc2nc(-c3ccc(-c4ccnc(OC(C)C)c4)cc3)cs2)n1 [IND-0116096] the solubility (physchem; [13]) was > 150 µM, the solubility (physchem; pH 7.4, aqueous buffer) was 3.1 µM (≈ 1.25 µg/mL) and the “Analiza solubility (μM) pH 1.2” value [4] was >150 μM.
For COCCOc1cc(-c2ccc(-c3csc(Nc4cccc(C)n4)n3)cc2)ccn1 [IND-0116099], the solubility (physchem; [13]) was 126 µM (≈ 52.5 µg/mL), the solubility (physchem; pH 7.4, aqueous buffer) was < 0.5 µM and the “Analiza solubility (μM) pH 7.4” value [4] was <0.5 μM.
In the case of Cc1cccc(Nc2nc(-c3ccc(-c4ccnc(OCC#N)c4)cc3)cs2)n1 [IND-0116138], the solubility (physchem; [13]) is reported as > 150 µM, the solubility (physchem; pH 7.4, aqueous buffer) is reported as < 0.4 µM and the “Analiza solubility (μM) pH 1.2” value [4] is reported as >150 μM. For the same compound, the “Analiza solubility (μM) pH 7.4” value [4] was <0.4 μM.
In the case of CN(C)c1cccc(Nc2nc(-c3ccc(-c4ccccc4)cc3)cs2)n1 [IND-0116142], the solubility (physchem; [13]) is reported as 16.1 µM (≈ 6 µg/mL), the solubility (physchem; pH 7.4, aqueous buffer) is reported as < 0.5 µM and the “Analiza solubility (μM) pH 7.4” value [4] is reported as <0.5 μM.
With CC(=O)CC(c1ccccc1)c1c(O)c2ccccc2oc1=O (stereo not drawn) [Warfarin, warfarin, reference compound] the “Unbound (%), Human Plasma” value (Binding in human plasma) was 0.68 ± 0.0023%.
For Cc1ccc(Nc2nc(-c3ccncc3)cs2)nc1 [compound 23], the EC50 (N2a-cl3 cells [5]) was > 32 µM, the “Permeability PA→B” value (MDCK-MDR1 cells) was 32.6 10^−6 cm/sec and the “Permeability PB→A” value (MDCK-MDR1 cells) was 42.3 10^−6 cm/sec. For the same compound, the “Microsome stability T1/2” value [6] was 0.333 h, the EC50 [7] was > 32 µM and the EC50 ([3]; ScN2a-cl3 cells, read-out: Antiprion activity ScN2a-cl3 EC50) was 1.57 µM. The “Dividing ELISA pEC50 (μM) 1st Expt.” value [3, 14] was 5.95, the EC50 ([3]; ScN2a-cl3 dividing cells, 1st determination, read-out: Dividing ELISA EC50 (μM) 1st Expt.) was 1.12 µM and the “Dividing ELISA pEC50 (μM) 2nd Expt.” value [3, 15] was 5.76. The EC50 ([3]; ScN2a-cl3 dividing cells, 2nd determination, read-out: Dividing ELISA EC50 (μM) 2nd Expt.) was 1.75 µM, the “Dividing ELISA pEC50 (μM) 3rd Expt.” value [3, 16] was 5.73 and the EC50 ([3]; ScN2a-cl3 dividing cells, 3rd determination, read-out: Dividing ELISA EC50 (μM) 3rd Expt.) was 1.85 µM. For the same compound, the “Dividing ELISA pEC50 (μM) Mean” value [3, 17] was 5.81 and the EC50 ([3]; ScN2a-cl3 dividing cells, mean of three determinations, read-out: Dividing ELISA EC50 (μM) Mean) was 1.57 µM.
For Cc1ccc(Nc2nc(-c3cc(-c4ccccc4)no3)cs2)nc1 [compound 27, (5-Methylpyridin-2-yl)-[4-(3-phenylisoxazol-5-yl)-thiazol-2-yl]-amine], the “metabolic stability (in words)” value [8] was “excellent stability”, the “mean brain concentration in excess of EC50” value [9] was ≤ 25 fold and the “Permeability PA→B” value (MDCK-MDR1 cells) was 6.8 10^−6 cm/sec. The “Permeability PB→A” value (MDCK-MDR1 cells) was 8.3 10^−6 cm/sec, the “Microsome stability T1/2” value [6] was 2.52 h and the EC50 [10] was 940 nM. The EC50 [7] was > 32 µM, the “Dividing ELISA pEC50 (μM) 1st Expt.” value [3, 14] was 5.96 and the “Dividing ELISA pEC50 (μM) 2nd Expt.” value [3, 15] was 6.13. The “Dividing ELISA pEC50 (μM) 3rd Expt.” value [3, 16] was 6.00, the “Dividing ELISA pEC50 (μM) Mean” value [3, 17] was 6.03 and the EC50 ([3]; read-out: Antiprion activity ScN2a-cl3 EC50, ScN2a-cl3 cells) was 0.94 µM. The EC50 ([3]; read-out: Dividing ELISA EC50 (μM) 1st Expt., ScN2a-cl3 dividing cells, 1st determination) was 1.09 µM, the EC50 ([3]; read-out: Dividing ELISA EC50 (μM) 2nd Expt., ScN2a-cl3 dividing cells, 2nd determination) was 0.747 µM and the EC50 ([3]; read-out: Dividing ELISA EC50 (μM) 3rd Expt., ScN2a-cl3 dividing cells, 3rd determination) was 0.994 µM. For the same compound, the EC50 ([3]; read-out: Dividing ELISA EC50 (μM) Mean, ScN2a-cl3 dividing cells, mean of three determinations) was 0.945 µM and the EC50 (N2a-cl3 cells [11]) was > 32 µM.
